In patent US5883107A, “Arginine mimic derivatives as enzyme inhibitors” (Corvas International, Inc., priority 1995, dated 1999):
Read-outs that look alike come from different tables or passages of the source.

Experiments:
[1] = system: trypsin, plasmin and kallikrein; settings: literature; cited from earlier work
[2] = target: T1, trypsin (Bos taurus, UniProt P00760); experiment: In vitro enzyme assay for specificity: trypsin; assay type: biochemical, bovine; settings: 0.5 nM enzyme, 30 minute incubation, read-out: IC50 for inhibition of trypsin
T1 construct: bovine pancreatic trypsin; purchased Worthington Biochemical Corp. TRL3; host or cells: bovine pancreas
T1 sequence (P00760 24-246): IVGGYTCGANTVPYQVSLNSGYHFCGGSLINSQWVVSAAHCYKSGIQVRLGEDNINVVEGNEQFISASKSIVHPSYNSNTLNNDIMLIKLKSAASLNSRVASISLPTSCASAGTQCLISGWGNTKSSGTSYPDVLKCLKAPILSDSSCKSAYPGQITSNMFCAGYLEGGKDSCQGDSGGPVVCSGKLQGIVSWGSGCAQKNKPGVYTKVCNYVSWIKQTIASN
Method: Trypsin catalytic activity was determined using the chromogenic substrate, S-2222 (benzoyl-L-isoleucine-L-glutamic acid-[gamma-methyl ester]-L-arginine-p-nitroanilide), which was obtained from Kabi Diagnostica. […] Purified (3×-crystallized; TRL3) bovine pancreatic trypsin was obtained from Worthington Biochemical Corp. The enzyme was reconstituted in deionized water and diluted into HBSA prior to assay in which the final concentration was 0.5 nM.

[3] = system: thrombin; settings: cited from earlier work
[4] = system: thrombosis; settings: literature; cited from earlier work
[5] = system: atherosclerotic rabbit femoral artery; settings: following mechanical damage; literature; cited from earlier work
[6] = system: thrombotic occlusion of the rat carotid artery; experiment: Rat model of FeCl3-induced platelet-dependent arterial thrombosis; assay type: in vivo; settings: iv, 1 h, read-out: ED50, dose that prevents complete thrombotic occlusion in 50% of animals tested
[7] = target: alpha-thrombin (Homo sapiens, UniProt P00734); experiment: In vitro enzyme assay for specificity: thrombin; assay type: biochemical; settings: first of the two values in the cell (two isomeric pair), or the only value; 0.25 nM enzyme, 30 minute incubation; read-out: IC50 for inhibition of alpha-thrombin amidolytic activity
Method: The buffer used for all assays was HBSA (10 mM HEPES, pH 7.5, 150 mM sodium chloride, 0.1% bovine serum albumin). […] Following a 30 minute incubation at ambient temperature, 50 microliters of the substrate at the concentrations specified below, was added to the wells yielding a final total volume of 200 microliters.
Thrombin catalytic activity was determined using the chromogenic substrate Pefachrome t-PA (CH3 SO2 -D-hexahydrotyrosine-glycyl-L-arginine-p-nitroanilide, obtained from Pentapharm Ltd.).

[8] = literature; cited from earlier work
[9] = literature; cited from earlier work; remark: listed apart in the source
[10] = first of the two values in the cell (two isomeric pair), or the only value

Which “selectivity (in words)” value [1] does the source give for CS(=O)(=O)O.CS(=O)(=O)O.N=C(N)Nc1ccc(C(=O)Oc2ccc3cc(C(=N)N)ccc3c2)cc1 [FUT 175, 6-amidino-2-naphthyl-4-guanidinobenzoate dimethanesulfonate] here?
The value was “non-selective”.

Which IC50 [2, 10] does the source give for CCCC(CCC)C(=O)N[C@@H](CC(=O)OC)C(=O)N1CCC[C@H]1C(=O)N[C@@H](C=O)CC1CCCN(C(=N)N)C1 (single isomer, unassigned) [Isomer 11B(D)] here?
The IC50 was 2590 nM.

Which results are given for CC1CNc2c(cccc2S(=O)(=O)N[C@@H](CCCNC(=N)N)C(=O)N2CC[C@@H](C)C[C@@H]2C(=O)O)C1 (stereo partly drawn) [Argatroban, 2R,4R-4-methyl-1-[N-2-(3-methyl-1,2,3,4-tetrahydro-8-quinolinesulfonyl)-L-argininal]-2-piperdinecarboxylic acid]?
inhibition of thrombin (in words) [3]: bind directly to the active site of thrombin; antithrombotic effect (in words) [4]: potent antithrombotic agent in several experimental models of acute arterial thrombosis

Which results are given for Hirudin?
smooth muscle proliferation and restenosis (in words) [5]: effectively inhibit smooth muscle proliferation and the associated restenosis; inhibition of thrombin (in words) ([3]; literature): one of the most potent inhibitors of thrombin known; antithrombotic effect (in words) [4]: potent antithrombotic agent in vivo

Which ED50 [6] does the source give for CCCC(CCC)C(=O)N[C@@H](CC(=O)OC)C(=O)N1CCC[C@H]1C(=O)N[C@H](C=O)CC1CCCN(C(=N)N)C1 (single isomer, unassigned) [Isomer 11B, alpha-N-(propylpentanoyl)-aspartyl(beta-methyl ester)-prolyl-3-[3-piperidyl-(N-guanidino)]-L-alaninal] here?
Its ED50 is 5 mg/kg.

And the IC50 [2, 10]?
The IC50 was 67 nM.

And the IC50 ([2]; second of the two values in the cell (two isomeric pair))?
The IC50 was 113 nM.

With CC(=O)N[C@H](Cc1ccccc1)C(=O)N1CCC[C@H]1C(=O)N[C@@H](CCCNC(=N)N)B(O)O [Ac-(D-Phe)-Pro-boroArg, acetyl-D-phenylalanyl-prolyl-boroarginine] as the molecule, how does the “inhibition of thrombin (in words)” value ([3]; literature) read?
Its value is “inhibit thrombin by directly binding to the active site”.

For N=C(N)NCCC[C@@H](C=O)NC(=O)[C@@H]1CCCN1C(=O)[C@H](N)Cc1ccccc1 [D-Phe-Pro-Arg-a1, D-phenylalanyl-prolyl-argininal], which “inhibition of thrombin (in words)” value [3] is on record?
The value was “inhibit thrombin by directly binding to the active site”.

With CCCC(CCC)C(=O)N[C@@H](Cc1nnn[nH]1)C(=O)N1CCC[C@H]1C(=O)N[C@H](C=O)CC1CCCN(C(=N)N)C1 (single isomer, unassigned) [Isomer 19B] as the molecule, how does the IC50 [7] read?
The IC50 was 3.11 nM.

What about the IC50 [2, 10] of the same molecule?
Its IC50 is 150 nM.

For N=C(N)c1ccc(CC(=O)C(=O)O)cc1 [APPA, 4-amidinophenylpyruvic acid], which “toxicity (in words)” value [8] is on record?
The value was “low toxicity”.

And the “pharmacokinetics (in words)” value [9]?
Its value is “favourable pharmacokinetics”.

And the “selectivity (in words)” value [1]?
The value was “non-selective, inhibiting trypsin, plasmin and kallikrein”.

For N=C(N)NCCC[C@H](NC(=O)[C@@H]1CCCN1C(=O)[C@H](N)Cc1ccccc1)C(=O)CCl [P-PACK, D-phenylalanyl-prolyl-arginine-chloromethyl ketone], which “inhibition of thrombin (in words)” value [3] is on record?
Its value is “inhibit thrombin by directly binding to the active site”.
